PubChem BioAssay AID1259407 (Chemical Carcinogenesis Research Information System (CCRIS), 2018)
Active and inactive are the calls of the source. How the calls were made is not given here.

Test system: CCRIS mutagenicity, Ames/micronucleus/aberration tests
Assay: CCRIS mutagenicity studies
[1] = Test System: AMES SALMONELLA TYPHIMURIUM, Strain/Indicator: TA97, Metabolic Activation: NONE, Method: PREINCUBATION
[2] = Test System: AMES SALMONELLA TYPHIMURIUM, Strain/Indicator: TA98, Metabolic Activation: NONE, Method: PREINCUBATION
[3] = Test System: AMES SALMONELLA TYPHIMURIUM, Strain/Indicator: TA100, Metabolic Activation: NONE, Method: PREINCUBATION

Measured: mutagenic call

C=C(C)[C@@H]1CC=C(C=O)CC1
inactive: [1] inactive; negative | Test System: AMES SALMONELLA TYPHIMURIUM, Strain/Indicator: TA97, Metabolic Activation: RAT, LIVER, S-9, AROCLOR 1254, Method: PREINCUBATION inactive; negative | Test System: AMES SALMONELLA TYPHIMURIUM, Strain/Indicator: TA102, Metabolic Activation: NONE, Method: PREINCUBATION inactive; negative | Test System: AMES SALMONELLA TYPHIMURIUM, Strain/Indicator: TA102, Metabolic Activation: RAT, LIVER, S-9, AROCLOR 1254, Method: PREINCUBATION inactive; negative

CCCC(=O)C1c2cccc(O)c2C(=O)c2c(O)cccc21
inactive: Test System: E. COLI, Strain/Indicator: WP2, Metabolic Activation: NONE, Method: STANDARD PLATE inactive; negative | Test System: E. COLI, Strain/Indicator: WP2, Metabolic Activation: RAT, LIVER, S-9, AROCLOR 1254, Method: STANDARD PLATE inactive; negative | Test System: E. COLI, Strain/Indicator: WP2 UVRA, Metabolic Activation: NONE, Method: STANDARD PLATE inactive; negative | Test System: E. COLI, Strain/Indicator: WP2 UVRA, Metabolic Activation: RAT, LIVER, S-9, AROCLOR 1254, Method: STANDARD PLATE inactive; negative
active: Test System: AMES SALMONELLA TYPHIMURIUM, Strain/Indicator: TA1537, Metabolic Activation: NONE, Method: STANDARD PLATE active; positive | Test System: AMES SALMONELLA TYPHIMURIUM, Strain/Indicator: TA1537, Metabolic Activation: RAT, LIVER, S-9, PHENOBARBITAL AND BETA-NAPHTHOFLAVONE, Method: STANDARD PLATE active; positive

COc1c(CO)c(O)cc2c1C(=O)c1ccccc1C2=O
active: [3] active; positive | Test System: AMES SALMONELLA TYPHIMURIUM, Strain/Indicator: TA100, Metabolic Activation: RAT, LIVER, S-9, PCB, Method: PREINCUBATION active; positive
inactive: [2] inactive; negative | Test System: AMES SALMONELLA TYPHIMURIUM, Strain/Indicator: TA98, Metabolic Activation: RAT, LIVER, S-9, PCB, Method: PREINCUBATION inactive; negative

c1cc2c3c(cccc3c1)CC2
inactive: Test System: AMES SALMONELLA TYPHIMURIUM, Strain/Indicator: TA97, Metabolic Activation: HAMSTER, LIVER, S-9, AROCLOR 1254 (10%), Method: PREINCUBATION inactive; negative | Test System: AMES SALMONELLA TYPHIMURIUM, Strain/Indicator: TA97, Metabolic Activation: HAMSTER, LIVER, S-9, AROCLOR 1254 (30%), Method: PREINCUBATION inactive; negative | [1] inactive; negative | Test System: AMES SALMONELLA TYPHIMURIUM, Strain/Indicator: TA97, Metabolic Activation: RAT, LIVER, S-9, AROCLOR 1254 (10%), Method: PREINCUBATION inactive; negative | Test System: AMES SALMONELLA TYPHIMURIUM, Strain/Indicator: TA97, Metabolic Activation: RAT, LIVER, S-9, AROCLOR 1254 (30%), Method: PREINCUBATION inactive; negative | Test System: AMES SALMONELLA TYPHIMURIUM, Strain/Indicator: TA98, Metabolic Activation: HAMSTER, LIVER, S-9, AROCLOR 1254 (10%), Method: PREINCUBATION inactive; negative | Test System: AMES SALMONELLA TYPHIMURIUM, Strain/Indicator: TA98, Metabolic Activation: HAMSTER, LIVER, S-9, AROCLOR 1254 (30%), Method: PREINCUBATION inactive; negative | [2] inactive; negative | Test System: AMES SALMONELLA TYPHIMURIUM, Strain/Indicator: TA98, Metabolic Activation: RAT, LIVER, S-9, AROCLOR 1254 (10%), Method: PREINCUBATION inactive; negative | Test System: AMES SALMONELLA TYPHIMURIUM, Strain/Indicator: TA98, Metabolic Activation: RAT, LIVER, S-9, AROCLOR 1254 (30%), Method: PREINCUBATION inactive; negative | Test System: AMES SALMONELLA TYPHIMURIUM, Strain/Indicator: TA100, Metabolic Activation: HAMSTER, LIVER, S-9, AROCLOR 1254 (10%), Method: PREINCUBATION inactive; negative | Test System: AMES SALMONELLA TYPHIMURIUM, Strain/Indicator: TA100, Metabolic Activation: HAMSTER, LIVER, S-9, AROCLOR 1254 (30%), Method: PREINCUBATION inactive; negative | [3] inactive; negative | Test System: AMES SALMONELLA TYPHIMURIUM, Strain/Indicator: TA100, Metabolic Activation: RAT, LIVER, S-9, AROCLOR 1254 (10%), Method: PREINCUBATION inactive; negative | Test System: AMES SALMONELLA TYPHIMURIUM, Strain/Indicator: TA100, Metabolic Activation: RAT, LIVER, S-9, AROCLOR 1254 (30%), Method: PREINCUBATION inactive; negative | Test System: AMES SALMONELLA TYPHIMURIUM, Strain/Indicator: TA1535, Metabolic Activation: HAMSTER, LIVER, S-9, AROCLOR 1254 (10%), Method: PREINCUBATION inactive; negative | Test System: AMES SALMONELLA TYPHIMURIUM, Strain/Indicator: TA1535, Metabolic Activation: HAMSTER, LIVER, S-9, AROCLOR 1254 (30%), Method: PREINCUBATION inactive; negative | Test System: AMES SALMONELLA TYPHIMURIUM, Strain/Indicator: TA1535, Metabolic Activation: NONE, Method: PREINCUBATION inactive; negative | Test System: AMES SALMONELLA TYPHIMURIUM, Strain/Indicator: TA1535, Metabolic Activation: RAT, LIVER, S-9, AROCLOR 1254 (10%), Method: PREINCUBATION inactive; negative | Test System: AMES SALMONELLA TYPHIMURIUM, Strain/Indicator: TA1535, Metabolic Activation: RAT, LIVER, S-9, AROCLOR 1254 (30%), Method: PREINCUBATION inactive; negative | Test System: AMES SALMONELLA TYPHIMURIUM, Strain/Indicator: TA1537, Metabolic Activation: HAMSTER, LIVER, S-9, AROCLOR 1254 (30%), Method: PREINCUBATION inactive; negative | Test System: AMES SALMONELLA TYPHIMURIUM, Strain/Indicator: TA1537, Metabolic Activation: NONE, Method: PREINCUBATION inactive; negative | Test System: AMES SALMONELLA TYPHIMURIUM, Strain/Indicator: TA1537, Metabolic Activation: RAT, LIVER, S-9, AROCLOR 1254 (30%), Method: PREINCUBATION inactive; negative
